System: KRAS patient-derived spheroids with HUVEC/MSC, viability
Experiment: Anticancer human tumor 323965-272-R-J2-PDC patient-derived pancreatic carcinoma cell line growth inhibition [KRAS2]
Settings: for IC50: curve of first compound; for viability, T/C: stronger effect = lower value
From the text: Multicellular complex tumor spheroid response to RAS pathway inhibitors in combination with a targeted agents in patient-derived cell lines with oncogenic KRAS variants from multiple cancer types
A high-throughput screen of multi-cell type tumor spheroids was designed to identify active combinations of targeted small molecules and KRAS pathway inhibitors. Complex spheroids include a stromal component modeled by human endothelial cells (HUVEC) and fibroblasts modeled by human mesenchymal stem cells (MSCs). The concentration ranges selected for each drug and investigational agent were based upon clinically achievable concentrations if the clinical Cmax of the agent was known.
Compounds. The drugs and investigational agents: BI-3406 (NSC825286), BAY-293 (NSC824723), batoprotafib (TNO155; NSC825523), sotorasib (AMG 510; NSC818433), MRTX1257 (NSC819558), elimusertib (BAY 1895344; NSC800525), molibresib (GSK525762; NSC774829), temuterkib (LY3214996; NSC803410), venetoclax (NSC766270), alisertib (NSC759677), olaparib (NSC753686), talazoparib (NSC767125), erdafitinib (NSC781556), ipatasertib (NSC767898), cabozantinib (NSC761068), nintedanib (NSC756659), abemaciclib (NSC768073), docetaxel (NSC628503), trametinib (NSC758246), and sapanisertib (NSC764658) were obtained from the National Cancer Institute (NCI) Developmental Therapeutics Program Chemical Repository. The FDA-approved anticancer drug set is available from the Developmental Therapeutics Program. […] The stock solutions were prepared in dimethyl sulfoxide (DMSO, Sigma-Aldrich, St. Louis, MO, cat. D2650) at 800-fold the tested concentration and stored at -70 degrees C prior to their use. All drugs and investigational agents were tested over a range starting from a high concentration at or near the clinical Cmax and decreasing in half-log increments. If the clinical Cmax for an agent had not been determined, the highest concentration tested was 10 microM.
Cell Culture. All cells were maintained in an incubator at 37 degrees C and 5% CO2 with 95% humidity. The PDC lines were cultured according to standard operating procedures established by the NCI PDMR (https://pdmr.cancer.gov/sops/default.htm). Briefly, all PDCs were thawed and cultured in Matrigel-coated flasks prepared with a working solution of 1X Ham's F-12 nutrient mix, without supplementation (Invitrogen, Waltham, MA, cat. 11765054), 100 U/mL penicillin-streptomycin (Invitrogen, cat. 15140122), and 2.5% Matrigel (Corning Inc., Corning, NY, cat. 354248) for the first three passages. All PDCs were cultured in complete DMEM/F-12 media containing advanced DMEM/F-12 (Invitrogen, cat. 12634028), 4.9% defined fetal bovine serum, heat inactivated (HyClone Laboratories Inc., Logan, UT, cat. SH30070.03HI), 389 ng/mL hydrocortisone (Sigma-Aldrich, cat. H4001), 9.7 ng/mL human EGF recombinant protein (Invitrogen, cat. PHG0313), 23.4 microg/mL adenine (Sigma-Aldrich, cat. A2786), 97.3 U/mL penicillin-streptomycin (Invitrogen, cat. 15140122), 1.9 mM L-glutamine (Invitrogen, cat. 25030081), and 9.7 microM Y-27632 dihydrochloride (Tocris Bioscience, Bristol, United Kingdom, cat. 1254). The PDCs were cultured in complete DMEM/F12 media without 9.7 microM Y-27632 dihydrochloride for at least two passages prior to the screen. The established cell line HOP-62 was cultured in RPMI 1640 medium, HEPES (Invitrogen, cat. 22400105) with 10% defined fetal bovine serum (HyClone Laboratories Inc., cat. SH30070.03) and 2 mM L-glutamine (Invitrogen, cat. 25030081). The pooled donor HUVEC were cultured in endothelial cell growth medium 2 (PromoCell, Heidelberg, Germany, cat. C-22011) and the hMSC were cultured in mesenchymal stem cell growth medium 2 (PromoCell, cat. C-28009). For all experiments, HUVEC and hMSC were used at passages </=5, while the malignant cell lines were used at passages </=15. […]

[1] = second compound 0.1 µM, first compound 0.0316 µM
[2] = second compound 0.1 µM, first compound 0.1 µM
[3] = second compound 0.1 µM, first compound 0.316 µM
[4] = second compound 0.1 µM, first compound 1 µM
[5] = second compound 0.1 µM, first compound 3.16 µM
[6] = second compound 0.1 µM, first compound 10 µM
[7] = second compound 0.316 µM, first compound 0.0316 µM
[8] = second compound 0.316 µM, first compound 0.1 µM
[9] = second compound 0.316 µM, first compound 0.316 µM
[10] = second compound 0.316 µM, first compound 1 µM
[11] = second compound 0.316 µM, first compound 3.16 µM
[12] = second compound 0.316 µM, first compound 10 µM
[13] = second compound 1 µM, first compound 0.0316 µM
[14] = second compound 1 µM, first compound 0.1 µM
[15] = second compound 1 µM, first compound 0.316 µM
[16] = second compound 1 µM, first compound 1 µM
[17] = second compound 1 µM, first compound 3.16 µM
[18] = second compound 1 µM, first compound 10 µM
[19] = second compound 3.16 µM, first compound 0.0316 µM
[20] = second compound 3.16 µM, first compound 0.1 µM
[21] = second compound 3.16 µM, first compound 0.316 µM
[22] = second compound 3.16 µM, first compound 1 µM
[23] = second compound 3.16 µM, first compound 3.16 µM
[24] = second compound 3.16 µM, first compound 10 µM
[25] = second compound 10 µM, first compound 0.0316 µM
[26] = second compound 10 µM, first compound 0.1 µM
[27] = second compound 10 µM, first compound 0.316 µM
[28] = second compound 10 µM, first compound 1 µM
[29] = second compound 10 µM, first compound 3.16 µM
[30] = second compound 10 µM, first compound 10 µM
[31] = second compound 0.1 µM, first compound 0.00316 µM
[32] = second compound 0.1 µM, first compound 0.01 µM
[33] = second compound 0.316 µM, first compound 0.00316 µM
[34] = second compound 0.316 µM, first compound 0.01 µM
[35] = second compound 1 µM, first compound 0.00316 µM
[36] = second compound 1 µM, first compound 0.01 µM
[37] = second compound 3.16 µM, first compound 0.00316 µM
[38] = second compound 3.16 µM, first compound 0.01 µM
[39] = second compound 10 µM, first compound 0.00316 µM
[40] = second compound 10 µM, first compound 0.01 µM
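Further: spheroids exposed to agents for 7 days.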
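Wherever viability, T/C is given: 100% = DMSO vehicle control viability.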

Compound | IC50 (second compound 0.1 µM) | IC50 (second compound 0.316 µM) | IC50 (second compound 1 µM) | IC50 (second compound 3.16 µM) | IC50 (second compound 10 µM) | viability, T/C [1] | viability, T/C [2] | viability, T/C [3] | viability, T/C [4] | viability, T/C [7] | viability, T/C [8] | viability, T/C [9] | viability, T/C [10] | viability, T/C [13] | viability, T/C [14] | viability, T/C [15] | viability, T/C [19] | viability, T/C [20] | viability, T/C [25] | viability, T/C [26] | further results
CC(C)NCC(C(=O)N1CCN(c2ncnc3c2C(C)CC3O)CC1)c1ccc(Cl)cc1 (stereo not given) + C=CC(=O)N1CCN(c2nc(=O)n(-c3c(C)ccnc3C(C)C)c3nc(-c4c(O)cccc4F)c(F)cc23)C(C)C1 | 175 nM | 80.4 nM | 159 nM | 53.5 nM | < 31.6 nM | 62.4% | 56.3% | 43.5% | 32.4% | 56.8% | 49.2% | 40.2% | 33% | 61.2% | 55% | 42.3% | 52.1% | 47.3% | 42.8% | 49.7% | viability, T/C [5]: 27.1%; viability, T/C [6]: 23.8%; viability, T/C [11]: 26%; viability, T/C [12]: 22.6%; viability, T/C [16]: 29.8%; viability, T/C [17]: 26.4%; viability, T/C [18]: 27.7%; viability, T/C [21]: 37.8%; viability, T/C [22]: 28.3%; viability, T/C [23]: 26.9%; viability, T/C [24]: 27.4%; viability, T/C [27]: 30.5%; viability, T/C [28]: 21.5%; viability, T/C [29]: 22.9%; viability, T/C [30]: 18%
CCN1CCN(Cc2ccc(Nc3ncc(F)c(-c4cc(F)c5nc(C)n(C(C)C)c5c4)n3)nc2)CC1 + C=CC(=O)N1CCN(c2nc(=O)n(-c3c(C)ccnc3C(C)C)c3nc(-c4c(O)cccc4F)c(F)cc23)C(C)C1 | 8.91 nM | 6.62 nM | 11.7 nM | 6.49 nM | < 3.16 nM | 39.8% | 37.5% | 37.1% | 43.1% | 38.7% | 29.6% | 33.5% | 43.8% | 36.4% | 35.5% | 31.6% | 38.1% | 39.5% | 37.6% | 36.5% | viability, T/C [31]: 57.6%; viability, T/C [32]: 54.7%; viability, T/C [33]: 59.8%; viability, T/C [34]: 46.5%; viability, T/C [35]: 51%; viability, T/C [36]: 52.8%; viability, T/C [16]: 48.8%; viability, T/C [37]: 56.6%; viability, T/C [38]: 49.1%; viability, T/C [21]: 33.4%; viability, T/C [22]: 51.5%; viability, T/C [39]: 38.6%; viability, T/C [40]: 52.2%; viability, T/C [27]: 37.1%; viability, T/C [28]: 45.4%
CCNC(=O)CC1N=C(c2ccc(Cl)cc2)c2cc(OC)ccc2-n2c(C)nnc21 (stereo not given) + C=CC(=O)N1CCN(c2nc(=O)n(-c3c(C)ccnc3C(C)C)c3nc(-c4c(O)cccc4F)c(F)cc23)C(C)C1 | 116 nM | 135 nM | 51.8 nM | 111 nM | < 31.6 nM | 54.6% | 52.5% | 35.9% | 30.9% | 51.5% | 55.5% | 40% | 31% | 51.3% | 49.2% | 40% | 57.1% | 51.9% | 46.4% | 38.4% | viability, T/C [5]: 30%; viability, T/C [6]: 25.6%; viability, T/C [11]: 28.6%; viability, T/C [12]: 25.7%; viability, T/C [16]: 32.5%; viability, T/C [17]: 27.6%; viability, T/C [18]: 30.1%; viability, T/C [21]: 35.5%; viability, T/C [22]: 33.6%; viability, T/C [23]: 28.3%; viability, T/C [24]: 28.3%; viability, T/C [27]: 27.7%; viability, T/C [28]: 24.9%; viability, T/C [29]: 20.1%; viability, T/C [30]: 18.5%
Cn1ncnc1[C@H]1c2n[nH]c(=O)c3cc(F)cc(c23)N[C@@H]1c1ccc(F)cc1 + C=CC(=O)N1CCN(c2nc(=O)n(-c3c(C)ccnc3C(C)C)c3nc(-c4c(O)cccc4F)c(F)cc23)C(C)C1 | > 100 nM | > 100 nM | > 100 nM | > 100 nM | 23.7 nM | 58.9% | 55.7% | – | – | 64% | 57.4% | – | – | 63.9% | 57% | – | 67.3% | 54.6% | 50.9% | 41.2% | viability, T/C (second compound 0.1 µM, first compound 0.000316 µM): 59.7%; viability, T/C (second compound 0.1 µM, first compound 0.001 µM): 65.8%; viability, T/C [31]: 58.8%; viability, T/C [32]: 57.8%; viability, T/C (second compound 0.316 µM, first compound 0.000316 µM): 63%; viability, T/C (second compound 0.316 µM, first compound 0.001 µM): 63.2%; viability, T/C [33]: 61.2%; viability, T/C [34]: 55%; viability, T/C (second compound 1 µM, first compound 0.000316 µM): 72.5%; viability, T/C (second compound 1 µM, first compound 0.001 µM): 64.2%; viability, T/C [35]: 68.3%; viability, T/C [36]: 58.7%; viability, T/C (second compound 3.16 µM, first compound 0.000316 µM): 63.6%; viability, T/C (second compound 3.16 µM, first compound 0.001 µM): 65.6%; viability, T/C [37]: 63.5%; viability, T/C [38]: 64.7%; viability, T/C (second compound 10 µM, first compound 0.000316 µM): 58.8%; viability, T/C (second compound 10 µM, first compound 0.001 µM): 62.7%; viability, T/C [39]: 57.4%; viability, T/C [40]: 50.4%

From PubChem BioAssay AID1963869 (Molecular Pharmacology Branch, DTP, NCI, 2024)
